Measured values: patent EP1166781A1, “PROTEASOME INHIBITORS” (KYOWA HAKKO KOGYO CO., LTD., priority 1999, dated 2000)

Biological target: T1, proteasome (Homo sapiens, UniProt P28074)
T1 construct: The obtained high molecular fraction (molecular weight >500K) was used as an enzyme solution for the detection of proteasome activity; endogenous in cells; host or cells: HeLa S3 cells: homogenate, 100,000G supernatant, >500K fraction from Centricon-500
Test: Proteasome inhibitory activity (Suc-Leu-Leu-Val-Tyr-AMC cleavage, crude enzyme solution from HeLa S3 cell extract)
Type: biochemical
Settings: not given
Protocol: 1 x 10^9 of HeLa S3 cells were dispersed in 5 ml of the buffer A [20 mmol/L of Tris (pH 7.5), 2 mmol/L of ATP, 5 mmol/L of MgCl2, 1 mmol/L of dithiothreitol (DTT)], and then homogenized at 4°C. The supernatant centrifuged at 100,000G was concentrated by a Centricon-500 (supplied by Amicon) and diluted with 2.5 ml of the buffer B [25 mmol/L of Tris/HCl (pH 7.5), 2 mmol/L of ATP, 1 mmol/L of DTT, 20% of glycerol]. The obtained high molecular fraction (molecular weight >500K) was used as an enzyme solution for the detection of proteasome activity. Suc-Leu-Leu-Val-Tyr-AMC [Suc: Succinyl; AMC: Aminomethylcoumarin](supplied by Peptide Institute, Inc.) was used as a substrate for measuring inhibitory activity for proteasome (stored as a 2 mmol/L DMSO solution). The reaction was carried out by the following method using 96-well microtiter plates. To 96 µl of a reaction buffer [20 mmol/L of Tris/HCl (pH 8), 0.5 mmol/L of EDTA, 0.04% of sodium dodecylsulfate (SDS)] were added 1 µl of a drug solution (DMSO) and 2 µl of an enzyme solution followed by adding 1 µl of a substrate solution thereto, and then the mixture was incubated at 37°C for one hour. […]

SMILES | IC50
CCC(C)C1C(=O)OC1C(=O)NCCCC(NC(=O)C(C)NC(=O)OC(C)(C)C)C(=O)OCc1ccccc1 (centres unmarked) [Compound 45] | 6 nM

Same assay, conditions: crude proteasome fraction (>500K) from HeLa S3 cells; substrate Suc-Leu-Leu-Val-Tyr-AMC; 37°C for one hour; read-out: IC50

SMILES | IC50
CCC(C)C1C(=O)OC1C(=O)NC1CC1CC(NC(=O)C(C)N)C(=O)OCc1ccccc1 (centres unmarked) [Compound 4] | 30 nM
CCC(C)C1C(=O)OC1C(=O)NC1CC1CC(NC(=O)C(C)NS(=O)(=O)c1ccccc1)C(=O)OCc1ccccc1 (centres unmarked) [Compound 39] | 8 nM
CCC(C)C1C(=O)OC1C(=O)NC1CC1CC(NC(=O)C(C)NS(C)(=O)=O)C(=O)OCc1ccccc1 (centres unmarked) [Compound 40] | 24 nM
CCC(C)C1C(=O)OC1C(=O)NCCCC(NC(=O)C(C)N)C(=O)OCc1ccccc1 (centres unmarked) [Compound 46] | 6 nM
CC(C)C[C@@H]1C(=O)O[C@H]1C(=O)NCCCC[C@H](NC(=O)[C@H](C)N)C(=O)OCc1ccccc1 [Compound 50] | 30 nM

Continued, values first:

IC50 | SMILES
12 nM | CCC(C)C1C(=O)OC1C(=O)NC1CC1CC(NC(=O)C(C)NP(=O)(c1ccccc1)c1ccccc1)C(=O)OCc1ccccc1 (centres unmarked) [Compound 41]
14 nM | CCC(C)C1C(=O)OC1C(=O)NC1CC1CC(NC(=O)C(C)N(Cc1ccccc1)Cc1ccccc1)C(=O)OCc1ccccc1 (centres unmarked) [Compound 43]
22 nM | CC(C)CC1C(=O)OC1C(=O)NCCCCC(COC(=O)c1ccccc1)NC(=O)C(C)NC(=O)OC(C)(C)C (centres unmarked) [Compound 56]
22 nM | CC(C)C[C@@H]1C(=O)O[C@H]1C(=O)NC1CC1CC(NC(=O)OC(C)(C)C)C(=O)NCc1cccc2ccccc12 (some centres unmarked) [Compound 90]
24 nM | CC(C)C[C@@H]1C(=O)O[C@H]1C(=O)NC1CC1CC(NC(=O)[C@H](C)NC(=O)OC(C)(C)C)C(=O)NCc1cccc2ccccc12 (some centres unmarked) [Compound 91]
400 nM | CCC(C)C1C(=O)OC1C(=O)NC1CC1CC(NC(=O)C(C)N)C(=O)O (centres unmarked) [UCK14A1, reference compound]

System: Human colon cancer, WiDr cells
Test: Antiproliferative activity in WiDr cells (MTT, 72 hours)
Type: cell-based
Settings: not given
Protocol: Human colon cancer, WiDr cells suspended in MEM media containing 10% of fetal calf serum were seeded in 96-well microtiter plates at 2 x 10^3cells/well, and precultured in an incubator with 5% of CO2 at 37°C for 24 hours. Then, each compound diluted appropriately with the media was added into the well at 50 µl/well. At this time, a final concentration of each compound is up to 100 µmol/l or 1 µmol/l. The cells were cultured in the incubator with 5% of CO2 at 37°C for additional 72 hours. At 5 hours before the culturing was terminated, MTT [3-(4,5-dimethylthiazol-2-yl)-2,5-[…] bromide] dissolved in the medium at a final concentration of 1 mg/mL was added into the well at 50 µl/well. After the culturing, dimethyl sulfoxide was added to the well at 150 µl/well, and the plate was vigorously stirred using a plate mixer to dissolve crystals of MTT-formazan completely. […]

SMILES | IC50
CCC(C)C1C(=O)OC1C(=O)NC1CC1CC(NC(=O)C(C)N)C(=O)OCc1ccccc1 (centres unmarked) [Compound 4] | 50 nM
CCC(C)C1C(=O)OC1C(=O)NC1CC1CC(NC(=O)C(C)NS(=O)(=O)c1ccccc1)C(=O)OCc1ccccc1 (centres unmarked) [Compound 39] | 486 nM
CCC(C)C1C(=O)OC1C(=O)NC1CC1CC(NC(=O)C(C)NS(C)(=O)=O)C(=O)OCc1ccccc1 (centres unmarked) [Compound 40] | 450 nM
CCC(C)C1C(=O)OC1C(=O)NCCCC(NC(=O)C(C)NC(=O)OC(C)(C)C)C(=O)OCc1ccccc1 (centres unmarked) [Compound 45] | 300 nM
CCC(C)C1C(=O)OC1C(=O)NCCCC(NC(=O)C(C)N)C(=O)OCc1ccccc1 (centres unmarked) [Compound 46] | 150 nM
CC(C)C[C@@H]1C(=O)O[C@H]1C(=O)NCCCC[C@H](NC(=O)[C@H](C)N)C(=O)OCc1ccccc1 [Compound 50] | 1800 nM

Continued, values first:

IC50 | SMILES
2400 nM | CCC(C)C1C(=O)OC1C(=O)NC1CC1CC(NC(=O)C(C)NP(=O)(c1ccccc1)c1ccccc1)C(=O)OCc1ccccc1 (centres unmarked) [Compound 41]
3900 nM | CCC(C)C1C(=O)OC1C(=O)NC1CC1CC(NC(=O)C(C)N(Cc1ccccc1)Cc1ccccc1)C(=O)OCc1ccccc1 (centres unmarked) [Compound 43]
1900 nM | CC(C)CC1C(=O)OC1C(=O)NCCCCC(COC(=O)c1ccccc1)NC(=O)C(C)NC(=O)OC(C)(C)C (centres unmarked) [Compound 56]
40000 nM | CC(C)C[C@@H]1C(=O)O[C@H]1C(=O)NC1CC1CC(NC(=O)OC(C)(C)C)C(=O)NCc1cccc2ccccc12 (some centres unmarked) [Compound 90]
22000 nM | CC(C)C[C@@H]1C(=O)O[C@H]1C(=O)NC1CC1CC(NC(=O)[C@H](C)NC(=O)OC(C)(C)C)C(=O)NCc1cccc2ccccc12 (some centres unmarked) [Compound 91]
> 30000 nM | CCC(C)C1C(=O)OC1C(=O)NC1CC1CC(NC(=O)C(C)N)C(=O)O (centres unmarked) [UCK14A1, reference compound]

System: human colon cancer cell line, WiDr transplanted in nude mice
Test: Antitumor activity for WiDr transplanted in nude mice
Type: in vivo, BALB/c-nu/nu mouse
Settings: Dose 5.0 mg/kg/day, intraperitoneally for 5 consecutive days; 7 days; WiDr solid tumor in mice
Protocol: Compound 4 was dissolved in ethanol and then prepared at the fixed concentrations by adding cremophor EL (supplied by SIGMA) and saline. At this time, final concentrations of ethanol, cremophor EL, and saline are 5%, 7.5% and 87.5%, respectively. 2 mm x 2 mm of the tumor piece of human colon cancer cell line, WiDr was subcutaneously transplanted in the ventral site of a BALB/c-nu/nu mouse. At the time when a tumor volume [a major axis (a), a minor axis (b): ab^2/2] attained to 25-60 mm^3, the test compound prepared was intraperitoneally administered for 5 consecutive days to five mice as one proup.
For evaluating antitumor activity of the compound, the tumor volume was measured everyday, and the ratio of the volume (V) on the day of each measurement to the volume (V0) on the day when the administration of the compound was started was obtained to calculate T/C(%).

SMILES | T/C
CCC(C)C1C(=O)OC1C(=O)NC1CC1CC(NC(=O)C(C)N)C(=O)OCc1ccccc1 (centres unmarked) [Compound 4] | 56%

Same assay, conditions: Dose 10.0 mg/kg/day, intraperitoneally for 5 consecutive days; 7 days; WiDr solid tumor in mice

SMILES | T/C
CCC(C)C1C(=O)OC1C(=O)NC1CC1CC(NC(=O)C(C)N)C(=O)OCc1ccccc1 (centres unmarked) [Compound 4] | 49%
